From ChEMBL document CHEMBL3885881, “DrugMatrix”

Organism: Rattus norvegicus
Assay: DrugMatrix - Regimen: Daily Repeat
Type: toxicity, organism-based, Sprague-Dawley
Parameters: regimen Daily Repeat, gender Male, age 6-8 weeks
Conditions: in vivo, po, route oral GAVAGE, vehicle .5 % CMC; for ABSOLUTE BASOPHIL / ABSOLUTE EOSINOPHIL / ABSOLUTE LYMPHOCYTE / ABSOLUTE MONOCYTE / ABSOLUTE SEGMENTED NEUTROPHIL / BASOPHIL / EOSINOPHIL / ERYTHROCYTE COUNT / HEMATOCRIT / HEMOGLOBIN / LEUKOCYTE COUNT / LYMPHOCYTE / MEAN CORPUSCULAR HEMOGLOBIN / MEAN CORPUSCULAR HEMOGLOBIN CONCENTRATION / MEAN CORPUSCULAR VOLUME / MONOCYTE / NEUTROPHIL / NUCLEATED RED BLOOD CELLS / PLATELET COUNT: tissue Blood; for ALANINE AMINOTRANSFERASE / ALBUMIN / ALKALINE PHOSPHATASE / ASPARTATE AMINOTRANSFERASE / BLOOD UREA NITROGEN / CARBON DIOXIDE / CHLORIDE / CHOLESTEROL / CREATINE PHOSPHOKINASE / CREATININE / GLUCOSE / LACTATE DEHYDROGENASE / LIPASE / PHOSPHORUS / POTASSIUM / SODIUM / TOTAL BILIRUBIN / TOTAL PROTEIN / URIC ACID: tissue Plasma
[1] = 100 mg/kg, 120 h, dose level Low, time 5 day
[2] = 1500 mg/kg, 72 h, dose level High, time 3 day
[3] = 1500 mg/kg, 120 h, dose level High, time 5 day

Question: Which “ABSOLUTE BASOPHIL” value [1] does the source give for `O=C(O)CCc1nc(-c2ccccc2)c(-c2ccccc2)o1` [OXAPROZIN] here?
Answer: 0 CELLS/uL

Question: What about the “ABSOLUTE EOSINOPHIL” value [1] of the same molecule?
Answer: 50.33 CELLS/uL

Question: And the “ABSOLUTE LYMPHOCYTE” value [1]?
Answer: 11457 CELLS/uL

Question: And the “ABSOLUTE MONOCYTE” value [1]?
Answer: 176 CELLS/uL

Question: And the “ABSOLUTE SEGMENTED NEUTROPHIL” value [1]?
Answer: 1916.67 CELLS/uL

Question: And the BASOPHIL [1]?
Answer: 0%

Question: What about the EOSINOPHIL [1] of the same molecule?
Answer: 0.33%

Question: What about the “ERYTHROCYTE COUNT” value [1] of the same molecule?
Answer: 5.42 x10E6/uL

Question: What about the HEMATOCRIT [1] of the same molecule?
Answer: 34.23%

Question: And the HEMOGLOBIN [1]?
Answer: 13.93 G/DL

Question: What about the “LEUKOCYTE COUNT” value [1] of the same molecule?
Answer: 13.6 x10E3/uL

Question: And the LYMPHOCYTE [1]?
Answer: 84%

Question: And the “MEAN CORPUSCULAR HEMOGLOBIN” value [1]?
Answer: 25.7 pg

Question: What about the “MEAN CORPUSCULAR HEMOGLOBIN CONCENTRATION” value [1] of the same molecule?
Answer: 40.67 G/DL

Question: What about the “MEAN CORPUSCULAR VOLUME” value [1] of the same molecule?
Answer: 63.1 fL

Question: What about the MONOCYTE [1] of the same molecule?
Answer: 1.33%

Question: What about the NEUTROPHIL [1] of the same molecule?
Answer: 14.33%

Question: What about the “NUCLEATED RED BLOOD CELLS” value [1] of the same molecule?
Answer: 0 /100WBC

Question: And the “PLATELET COUNT” value [1]?
Answer: 1354 x10E3/uL

Question: What about the “ALANINE AMINOTRANSFERASE” value [1] of the same molecule?
Answer: 54.67 u/L

Question: What about the ALBUMIN [1] of the same molecule?
Answer: 4.3 G/DL

Question: And the “ALKALINE PHOSPHATASE” value [1]?
Answer: 418.33 u/L

Question: What about the “ASPARTATE AMINOTRANSFERASE” value [1] of the same molecule?
Answer: 81.67 u/L

Question: And the “BLOOD UREA NITROGEN” value [1]?
Answer: 16 mg/dL

Question: And the “CARBON DIOXIDE” value [1]?
Answer: 26.67 mmol/L

Question: And the CHLORIDE [1]?
Answer: 102.67 MEQ/L

Question: What about the CHOLESTEROL [1] of the same molecule?
Answer: 57.67 mg/dL

Question: And the “CREATINE PHOSPHOKINASE” value [1]?
Answer: 284.33 u/L

Question: What about the CREATININE [1] of the same molecule?
Answer: 0.2 mg/dL

Question: And the GLUCOSE [1]?
Answer: 154 mg/dL

Question: What about the “LACTATE DEHYDROGENASE” value [1] of the same molecule?
Answer: 102.67 u/L

Question: What about the LIPASE [1] of the same molecule?
Answer: 9.33 u/L

Question: And the PHOSPHORUS [1]?
Answer: 12.87 mg/dL

Question: And the POTASSIUM [1]?
Answer: 6.84 MEQ/L

Question: And the SODIUM [1]?
Answer: 145.4 MEQ/L

Question: And the “TOTAL BILIRUBIN” value [1]?
Answer: 0.23 mg/dL

Question: What about the “TOTAL PROTEIN” value [1] of the same molecule?
Answer: 6.2 G/DL

Question: And the “URIC ACID” value [1]?
Answer: 1.83 mg/dL

Question: And the “ABSOLUTE BASOPHIL” value [2]?
Answer: 0 CELLS/uL

Question: And the “ABSOLUTE EOSINOPHIL” value [2]?
Answer: 0 CELLS/uL

Question: And the “ABSOLUTE LYMPHOCYTE” value [2]?
Answer: 11713.67 CELLS/uL

Question: What about the “ABSOLUTE MONOCYTE” value [2] of the same molecule?
Answer: 379.33 CELLS/uL

Question: What about the “ABSOLUTE SEGMENTED NEUTROPHIL” value [2] of the same molecule?
Answer: 2140.33 CELLS/uL

Question: What about the BASOPHIL [2] of the same molecule?
Answer: 0%

Question: What about the EOSINOPHIL [2] of the same molecule?
Answer: 0%

Question: What about the “ERYTHROCYTE COUNT” value [2] of the same molecule?
Answer: 5.87 x10E6/uL

Question: And the HEMATOCRIT [2]?
Answer: 37.03%

Question: And the HEMOGLOBIN [2]?
Answer: 14.47 G/DL

Question: What about the “LEUKOCYTE COUNT” value [2] of the same molecule?
Answer: 14.23 x10E3/uL

Question: And the LYMPHOCYTE [2]?
Answer: 82.33%

Question: What about the “MEAN CORPUSCULAR HEMOGLOBIN” value [2] of the same molecule?
Answer: 24.63 pg

Question: And the “MEAN CORPUSCULAR HEMOGLOBIN CONCENTRATION” value [2]?
Answer: 39.07 G/DL

Question: What about the “MEAN CORPUSCULAR VOLUME” value [2] of the same molecule?
Answer: 63.17 fL

Question: What about the MONOCYTE [2] of the same molecule?
Answer: 2.67%

Question: What about the NEUTROPHIL [2] of the same molecule?
Answer: 15%

Question: And the “NUCLEATED RED BLOOD CELLS” value [2]?
Answer: 0 /100WBC

Question: What about the “PLATELET COUNT” value [2] of the same molecule?
Answer: 1318.33 x10E3/uL

Question: And the “ALANINE AMINOTRANSFERASE” value [2]?
Answer: 83 u/L

Question: What about the ALBUMIN [2] of the same molecule?
Answer: 4.77 G/DL

Question: And the “ALKALINE PHOSPHATASE” value [2]?
Answer: 581 u/L

Question: What about the “ASPARTATE AMINOTRANSFERASE” value [2] of the same molecule?
Answer: 86.67 u/L

Question: And the “BLOOD UREA NITROGEN” value [2]?
Answer: 17.33 mg/dL

Question: What about the “CARBON DIOXIDE” value [2] of the same molecule?
Answer: 31.33 mmol/L

Question: What about the CHLORIDE [2] of the same molecule?
Answer: 99.33 MEQ/L

Question: What about the CHOLESTEROL [2] of the same molecule?
Answer: 70 mg/dL

Question: And the “CREATINE PHOSPHOKINASE” value [2]?
Answer: 206 u/L

Question: What about the CREATININE [2] of the same molecule?
Answer: 0.24 mg/dL

Question: What about the GLUCOSE [2] of the same molecule?
Answer: 118 mg/dL

Question: And the “LACTATE DEHYDROGENASE” value [2]?
Answer: 247.33 u/L

Question: And the LIPASE [2]?
Answer: 8.67 u/L

Question: And the PHOSPHORUS [2]?
Answer: 11.17 mg/dL

Question: What about the POTASSIUM [2] of the same molecule?
Answer: 5.96 MEQ/L

Question: What about the SODIUM [2] of the same molecule?
Answer: 145.9 MEQ/L

Question: And the “TOTAL BILIRUBIN” value [2]?
Answer: 0.3 mg/dL

Question: What about the “TOTAL PROTEIN” value [2] of the same molecule?
Answer: 5.73 G/DL

Question: And the “URIC ACID” value [2]?
Answer: 1.37 mg/dL

Question: And the “ABSOLUTE BASOPHIL” value [3]?
Answer: 0 CELLS/uL

Question: What about the “ABSOLUTE EOSINOPHIL” value [3] of the same molecule?
Answer: 0 CELLS/uL

Question: And the “ABSOLUTE LYMPHOCYTE” value [3]?
Answer: 19502.67 CELLS/uL

Question: What about the “ABSOLUTE MONOCYTE” value [3] of the same molecule?
Answer: 68 CELLS/uL

Question: And the “ABSOLUTE SEGMENTED NEUTROPHIL” value [3]?
Answer: 3096 CELLS/uL

Question: What about the BASOPHIL [3] of the same molecule?
Answer: 0%

Question: What about the EOSINOPHIL [3] of the same molecule?
Answer: 0%

Question: What about the “ERYTHROCYTE COUNT” value [3] of the same molecule?
Answer: 5.71 x10E6/uL

Question: What about the HEMATOCRIT [3] of the same molecule?
Answer: 35.9%

Question: And the HEMOGLOBIN [3]?
Answer: 14.6 G/DL

Question: What about the “LEUKOCYTE COUNT” value [3] of the same molecule?
Answer: 22.67 x10E3/uL

Question: And the LYMPHOCYTE [3]?
Answer: 86.33%

Question: What about the “MEAN CORPUSCULAR HEMOGLOBIN” value [3] of the same molecule?
Answer: 25.63 pg

Question: What about the “MEAN CORPUSCULAR HEMOGLOBIN CONCENTRATION” value [3] of the same molecule?
Answer: 40.7 G/DL

Question: What about the “MEAN CORPUSCULAR VOLUME” value [3] of the same molecule?
Answer: 63 fL

Question: What about the MONOCYTE [3] of the same molecule?
Answer: 0.33%

Question: What about the NEUTROPHIL [3] of the same molecule?
Answer: 13.33%

Question: What about the “NUCLEATED RED BLOOD CELLS” value [3] of the same molecule?
Answer: 0.33 /100WBC

Question: And the “PLATELET COUNT” value [3]?
Answer: 1504 x10E3/uL

Question: And the “ALANINE AMINOTRANSFERASE” value [3]?
Answer: 136.67 u/L

Question: And the ALBUMIN [3]?
Answer: 4.57 G/DL

Question: And the “ALKALINE PHOSPHATASE” value [3]?
Answer: 427.67 u/L

Question: What about the “ASPARTATE AMINOTRANSFERASE” value [3] of the same molecule?
Answer: 109.67 u/L

Question: And the “BLOOD UREA NITROGEN” value [3]?
Answer: 17.67 mg/dL

Question: And the “CARBON DIOXIDE” value [3]?
Answer: 25.33 mmol/L

Question: And the CHLORIDE [3]?
Answer: 98.67 MEQ/L

Question: What about the CHOLESTEROL [3] of the same molecule?
Answer: 83.67 mg/dL

Question: What about the “CREATINE PHOSPHOKINASE” value [3] of the same molecule?
Answer: 243 u/L

Question: And the CREATININE [3]?
Answer: 0.35 mg/dL

Question: And the GLUCOSE [3]?
Answer: 126 mg/dL

Question: And the “LACTATE DEHYDROGENASE” value [3]?
Answer: 170.67 u/L

Question: What about the LIPASE [3] of the same molecule?
Answer: 11.33 u/L

Question: What about the PHOSPHORUS [3] of the same molecule?
Answer: 11.23 mg/dL

Question: What about the POTASSIUM [3] of the same molecule?
Answer: 6.06 MEQ/L

Question: And the SODIUM [3]?
Answer: 143.63 MEQ/L

Question: And the “TOTAL BILIRUBIN” value [3]?
Answer: 0.27 mg/dL

Question: What about the “TOTAL PROTEIN” value [3] of the same molecule?
Answer: 6 G/DL

Question: And the “URIC ACID” value [3]?
Answer: 1.83 mg/dL
